Measured values published in US4839466A, “Insulin activity messengers” (The Rockefeller University, priority 1987, dated 1989).

Columns and labels:
Format in all cases: biochemical, rat
Adenylate Cyclase = test: Generation of an enzyme modulator from liver plasma membranes, adenylate cyclase readout
Protocol: (§1) Purification of the Enzyme Modulator. Bovine liver particulate fraction was prepared as described previously [Saltiel A. R., (1984) "Preparation and Characterization of Putative Insulin Mediators from Liver", METHODS IN DIABETES […], eds. J. Larner, S. Pohl, I:73]. Solutions were incubated in 5 mM ammonium bicarbonate, pH 7.4 with 10 nM insulin or 1 ug/ml PI-PLC as described in the figure legends. Following incubation, solutions were acidified to pH 4.0 and centrifuged at 35,000 x g for 20 minutes. Resulting supernatants were extracted with chloroform/methanol (2:1). The upper aqueous phase was aspirated and methanol was evaporated. Enzyme modulating activities were purified as described in Publication No. 6 listed earlier herein. Briefly, the extract was chromatographed on DEAE-Cellulose and eluted with 0.25M triethylamine (TEA)-formate, pH 3.75. This was followed by chromatography on C-18 reversed phase resin, in the same buffer, followed by Dowex 50W X-4 in 50 mM TEA-formate, pH 3.0. The resulting eluate was lyophilized, resuspended in 50 mM TEA-formate, pH 4.5 and sequentially chromatographed on QAE-Sephadex, SAX HPLC and a P-2 gel filtration column. Only the cyclic inositol phosphate derivative residing in Peak I was examined.
(§2) Enzyme Assays. The low Km cAMP PDE was assayed in a rat adipocyte particulate fraction as previously described [Saltiel, A. R., Steigerwalt,R. W., (1986) "Purification of Putative Insulin-Sensitive cAMP Phosphodiesterase or its Catalytic Domain From Rat Adipocytes", DIABETES, 35:698] and as later modified in Publication No. 6. Activity was linear throughout 20 min. and proportional to protein concentration. Only the low Km species of the enzyme was present in this fraction. PDH activity was assayed in liver mitoplasts after preincubation with ATP as previously described [Saltiel et al., (1982) PROC. NATL. ACAD. SCI. U.S.A., 79:3513.]. Adenylate cyclase activity was also assayed in purified adipocyte plasma membranes. For all enzyme assays, variability was less than 5%.
(§3) Liver membranes were treated with or without 10 nM insulin or 1 ug/ml PI-PLC for 10 min. at 37° C. Following cetrifugation, the supernatants were extracted and purified up to and including the SAX HPLC step. Purified extracts were added to enzyme assays at a final dilution of 1:10. Enzyme activities were assayed with no additions or after addition of purified extracts from control, insulin or PIPPLC treated membrane. Percent of basal activity is expressed in parentheses. ^1 expressed as pmoles/mg protein-min. ^2 expressed as nmoles/mg protein-min.

cAMP phosphodiesterase [1] = test: Generation of PDE messenger from liver membranes by insulin or PI-PLC; extracts assayed on cAMP phosphodiesterase
Protocol: These were generated from bovine liver particulate fractions by a modification of previously described methods. Particulate fraction was prepared from 100 g of bovine liver, and suspended in […] ammonium bicarbonate, pH 7.4. (Buffer A) at a final concentration of 2-4 mg protein/ml. This solution was incubated with […] for 10 min at 37° C., acidified to pH 4.0 with formic acid and sedimented at 45,000 g for 20 min. An equal volume of chloroform/methanol (2:1) was added to the supernatant, and the upper phase was aspirated and methanol was evaporated.
In the tests the results of which are tabulated above, liver membranes were treated as indicated for 10 min at 37° C., centrifuged and supernatants were extracted and purified up to and including the Dowex 50WX-4 step as described earlier herein under "Experimental Frocedures".
Partially purified extracts were assayed for ability to modulate cAMP phosphodiesterase. Basal activity was 56.2 pmoles/mg protein^-1 -min^-1.

cAMP phosphodiesterase [2] = test: Generation of an enzyme modulator from liver plasma membranes, cAMP phosphodiesterase readout
Protocol: as §1, §2, §3

[3] = membranes exposed to 10 nM insulin 10 min.

In the case of Insulin: monocomponent bovine insulin, the “Adenylate Cyclase activity” value (Adenylate Cyclase; extract as E41, no addition 272±14, control membranes 210±4) is reported as 72.0±3.7 pmoles/mg protein-min, the “inhibition of adenylate cyclase by the substance generated” value (Adenylate Cyclase; [3]) is reported as 75% and the “stimulation/increase of production of PDE modulating activity from membranes” value (cAMP phosphodiesterase [1]; after partial purification, PI-PLC 1.0 ug/ml) is reported as 4 fold. For the same substance, the “PDE Activity” value (cAMP phosphodiesterase [1]; extract of liver membranes treated 10 min at 37° C. (1.0 nM Insulin, PI-PLC), purified up to Dowex 50WX-4, basal 56.2, untreated membranes 78.5) was 138.0 pmol mg protein^-1 min^-1, the “cAMP Phosphodiesterase activity” value (cAMP phosphodiesterase [2]; extract of liver membranes treated with 10 nM insulin or 1 ug/ml PI-PLC 10 min. 37° C., purified to SAX HPLC, dilution 1:10, no addition 61.7±4.2, control membranes 78.5±5.6) was 146±3 pmoles/mg protein-min and the “stimulation of PDE by the substance generated” value (cAMP phosphodiesterase [2]; [3]) was 2-3 fold.
